Results from article PMC3064998, “In Vitro Selection of Cathepsin E-Activity-Enhancing Peptide Aptamers at Neutral pH” (International Journal of Peptides, 2011).
Ends that are not written are not given here.

T1: cathepsin E (Rattus norvegicus, UniProt P16228)
T1 construct: The enzyme CatE was prepared from rat spleen according to the method previously described; from tissue; host or cells: rat spleen
T1 sequence (P16228 59-398): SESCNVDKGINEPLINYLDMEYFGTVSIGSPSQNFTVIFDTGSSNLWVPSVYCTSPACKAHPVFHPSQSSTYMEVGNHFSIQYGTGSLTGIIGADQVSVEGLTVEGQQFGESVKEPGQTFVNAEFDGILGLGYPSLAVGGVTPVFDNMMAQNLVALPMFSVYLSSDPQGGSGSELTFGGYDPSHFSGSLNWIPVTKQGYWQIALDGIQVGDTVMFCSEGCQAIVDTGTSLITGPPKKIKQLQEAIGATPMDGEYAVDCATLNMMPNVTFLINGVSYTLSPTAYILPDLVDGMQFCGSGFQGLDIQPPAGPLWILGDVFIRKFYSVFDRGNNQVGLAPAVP

T2: P1 (p2006) peptide aptamer
T2 chain: VGCDFMYV

T3: P3 (p3006) peptide aptamer
T3 chain: IEGRVGCDFMYVG

T4: S3 (p4038) peptide aptamer
T4 chain: IGCEERSFPNIIIIIG


How the values were obtained:
[1] = biological target: T1, cathepsin E; experiment: SPR (Biacore 2000) measurement of KD; details: CatE immobilized on CM5 chip, running buffer 50 mM Tris-HCl, 100 mM NaCl, pH 7.4, four peptide concentrations, 1:1 binding with mass transfer model, unit M printed in b35 only, read-out: KD (dissociation constant)
Description: (§1) A fluorogenic substrate susceptible at neutral pH to the protease cathepsin E, which usually functions at acidic pH, was designed as per reference: [Nma-Gly-Gly-Arg-Arg-Ser-Gly-Thy-Cys-Gly(Dnp)-D-Arg-NH2]. The peptide was custom-synthesized at Peptide Institute (Osaka, Japan) and confirmed to be an effective substrate at pH 7.4. The peptide was dissolved in dimethyl sulfoxide (DMSO) at 10 mM and stored in a deep freezer until use. The enzyme CatE was prepared from rat spleen according to the method previously described and immobilized on N-hydroxysuccinimide-activated sepharose beads (GE Healthcare, USA) using the amine-coupling method and stored in, 100 mM phosphate buffer (pH 7.4) at 4°C.
An SPR instrument, Biacore 2000 (GE Healthcare, UK), was used for measuring KD for the binding of cathepsin E and selected peptides. Cathepsin E was immobilized onto Biacore sensor chip CM5 (GE Healthcare, UK) by the amine-coupling method using an Amine Coupling Kit (GE Healthcare, UK). Immobilization of cathepsin E was performed using running buffer (50 mM sodium acetate, 100 mM NaCl, pH 4.5). To determine dissociation constants, four different concentrations of selected peptides were used for the interaction. […] The binding data were analyzed with the 1 : 1 binding with mass transfer model in the BIAevaluation software version 4 : 1 (Biacore).

[2] = tested on: cathepsin E (CatE); experiment: CatE-activity-enhancement assay at neutral pH (fluorogenic substrate); assay type: biochemical, rat; details: pH 7.4; for Activities (%) Asy (CatE activity with chemically synthesized peptide): CatE 20 nM : peptide 1:1; for Activities (%) Asy (CatE activity with chemically synthesized peptide) / Activities (%) Adp (CatE activity with in vitro translated peptide): 50 mM Tris-HCl, 100 mM NaCl, preincubation 25°C 10 min, substrate 5 μM, 37°C 1 h, fluorescence ex 340/em 440 nm, 100% = CatE + substrate without peptide; for Activities (%) Adp (CatE activity with in vitro translated peptide): CatE 20 nM : peptide 1:1 (20 nM), three independent experiments
Description: as §1
CatE-activation by peptide aptamers was assayed by the method described previously but with a few modifications. Briefly, the CatE (20 nM) solution preincubated with a peptide aptamer in a 1 : 1 molar ratio in the selection buffer (50 mM Tris-HCl, 100 mM NaCl, pH 7.4) at 25°C for 10 min. was combined with the fluorogenic substrate (5 μM) and the enzyme reaction performed at 37°C for 1 h. The reaction product was measured by fluorescence intensity at 440 nm with an excitation wavelength of 340 nm using a fluorescence microplate reader, Infinite 200 (Tecan, Japan). The percentage of activation (A) was calculated by fitting the data to the following equation:
(1) A=100×Sf−Bf/Cf−Bf [% activation], where Sf represents the fluorescence intensity of the positive reaction consisting of the enzyme (CatE), the fluorogenic substrate, and a possible peptide activator; C f is that of the control reaction mixture consisting of CatE and fluorogenic substrate (without peptide activator); B f is the background fluorescence of the negative reaction mixture consisting of only the fluorogenic substrate.

[3] = biological target: T2, P1 (p2006) peptide aptamer; experiment: SPR
[4] = biological target: T3, P3 (p3006) peptide aptamer; experiment: SPR
[5] = biological target: T4, S3 (p4038) peptide aptamer; experiment: SPR

| Kd [1] | Molecule | Activities (%) Asy (CatE activity with chemically synthesized peptide) [2] | Activities (%) Adp (CatE activity with in vitro translated peptide) [2] | also measured |
| --- | --- | --- | --- | --- |
| 334 nM | IEGRVGCDFMYVG [P3] | – | – | – |
| 389 nM | IGCEERSFPNIIIIIG [S3] | – | – | – |
| – | KGPPPCPC [P2] | 110 ± 4% | 128 ± 20% | enhancement of CatE-activity (increase over control) ([2]; in vitro translation synthesized peptides): 10 to 30% |
| – | PGIKPPPCIIIIG [S2] | 144.5 ± 11% | 180 ± 10% | – |
| – | SPIISHIVGCDPPSCG [S1] | – | 160 ± 20% | – |
| – | Cathepsin E (protein) SESCNVDKGINEPLINYLDMEYFGTVSIGSPSQNFTVIFDTGSSNLWVPSVYCTSPACKAHPVFHPSQSSTYMEVGNHFSIQYGTGSLTGIIGADQVSVEGLTVEGQQFGESVKEPGQTFVNAEFDGILGLGYPSLAVGGVTPVFDNMMAQNLVALPMFSVYLSSDPQGGSGSELTFGGYDPSHFSGSLNWIPVTKQGYWQIALDGIQVGDTVMFCSEGCQAIVDTGTSLITGPPKKIKQLQEAIGATPMDGEYAVDCATLNMMPNVTFLINGVSYTLSPTAYILPDLVDGMQFCGSGFQGLDIQPPAGPLWILGDVFIRKFYSVFDRGNNQVGLAPAVP | – | – | Kd [3]: ~10000 nM; Kd [4]: 334 nM; Kd [5]: 389 nM |
